PubChem BioAssay AID256 (DTP/NCI, 2004)
Several values for one entry are separate records, joined by “and”; a condition that tells them apart may be missing. Equal entries are not always repeated. Inconclusive results and toxic doses are left out.

Tested on: CD2F1 mice, L1210 leukemia ip, survival T/C
Test: NCI In Vivo Anticancer Drug Screen. Data for tumor model L1210 Leukemia (intraperitoneal) in CD2F1 (CDF1) mice
Conditions: endpoint: mean survival time, higher = longer survival
Method in brief: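 In this screen, transplantable tumors were grown in mice given either the compound or its vehicle. Results were expressed as the treated measurement relative to the control measurement.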

[1] = dose: 200.0 mg/kg/injection, schedule: Q01DX001 (ip), vehicle: saline
[2] = dose: 400.0 mg/kg/injection, schedule: Q01DX001 (ip), vehicle: saline
[3] = dose: 100.0 mg/kg/injection, schedule: Q01DX001 (ip), vehicle: saline with Tween-80
[4] = dose: 200.0 mg/kg/injection, schedule: Q01DX001 (ip), vehicle: saline with Tween-80
[5] = dose: 400.0 mg/kg/injection, schedule: Q01DX001 (ip), vehicle: saline with Tween-80
[6] = dose: 100.0 mg/kg/injection, schedule: Q01DX001 (ip), vehicle: saline
[7] = dose: 100.0 mg/kg/injection, schedule: Q04DX003 (ip), vehicle: saline with Tween-80
[8] = dose: 200.0 mg/kg/injection, schedule: Q04DX003 (ip), vehicle: saline with Tween-80
[9] = dose: 400.0 mg/kg/injection, schedule: Q04DX003 (ip), vehicle: saline with Tween-80
[10] = dose: 100.0 mg/kg/injection, schedule: Q01DX009 (ip), vehicle: saline
[11] = dose: 200.0 mg/kg/injection, schedule: Q01DX009 (ip), vehicle: saline
[12] = dose: 12.5 mg/kg/injection, schedule: Q01DX009 (ip), vehicle: saline
[13] = dose: 25.0 mg/kg/injection, schedule: Q01DX009 (ip), vehicle: saline

With `O=C(O)CC(O)(CC(=O)O)C(=O)O` the T/C (dose: 60.0 mg/kg/injection, schedule: Q01DX001 (ip), vehicle: saline) was 106 % of control, the T/C [1] was 96 % of control and the T/C [2] was 94 % of control. The T/C (dose: 800.0 mg/kg/injection, schedule: Q01DX001 (ip), vehicle: saline) was 100 % of control.
In the case of `[NH-]CC[NH-].[NH-]CC[NH-].[NH-]CC[NH-].[Ni+2].[O-][Cl+3]([O-])([O-])O`, the T/C (dose: 25.0 mg/kg/injection, schedule: Q04DX002 (ip), vehicle: saline with Tween-80) was 117 % of control and the T/C (dose: 50.0 mg/kg/injection, schedule: Q04DX002 (ip), vehicle: saline with Tween-80) was 92 % of control.
`BrC1=C(c2ccccc2)SC(Br)=C(c2ccccc2)S1` was tested, and the T/C [3] was 94 % of control, the T/C [4] was 87 % of control and the T/C [5] was 91 % of control.
`COc1c2occc2c(OC)c2c(=O)cc(/C=C/c3ccccn3)oc12` was tested, and the T/C [6] was 98 % of control, the T/C [1] was 101 % of control and the T/C [2] was 98 % of control.
With `CN(C1=CC(=O)c2ccccc2C1=O)C1CCCCC1` the T/C [7] was 93 % of control, the T/C [8] was 93 % of control and the T/C [9] was 104 % of control.
With `CNC(=S)Nc1ccc(OC)c2ccccc12` the T/C (dose: 100.0 mg/kg/injection, schedule: Q04DX003 (ip), vehicle: Klucel (hydroxypropylcellulose) (HPC)) was 86 % of control, the T/C (dose: 200.0 mg/kg/injection, schedule: Q04DX003 (ip), vehicle: Klucel (hydroxypropylcellulose) (HPC)) was 88 % of control and the T/C (dose: 400.0 mg/kg/injection, schedule: Q04DX003 (ip), vehicle: Klucel (hydroxypropylcellulose) (HPC)) was 89 % of control.
For `CC(C)N1CC(COc2cccc3ccccc23)OP1(=O)N(CCCl)CCCl` (stereo not given), the T/C (dose: 31.25 mg/kg/injection, schedule: Q01DX001 (ip), vehicle: distilled water + Tween-80) was 101 % of control, the T/C (dose: 62.5 mg/kg/injection, schedule: Q01DX001 (ip), vehicle: distilled water + Tween-80) was 101 % of control and the T/C (dose: 125.0 mg/kg/injection, schedule: Q01DX001 (ip), vehicle: distilled water + Tween-80) was 95 % of control and 98 % of control and 101 % of control. For the same compound, the T/C (dose: 250.0 mg/kg/injection, schedule: Q01DX001 (ip), vehicle: distilled water + Tween-80) was 93 % of control and 103 % of control and 111 % of control, the T/C (dose: 500.0 mg/kg/injection, schedule: Q01DX001 (ip), vehicle: distilled water + Tween-80) was 90 % of control and 110 % of control and the T/C (dose: 1000.0 mg/kg/injection, schedule: Q01DX001 (ip), vehicle: distilled water + Tween-80) was 113 % of control and 93 % of control.
For `CNOCc1ccc(C(=O)NC(C)C)cc1`, the T/C (dose: 25.0 mg/kg/injection, schedule: Q01DX009 (ip), vehicle: other) was 98 % of control, the T/C (dose: 50.0 mg/kg/injection, schedule: Q01DX009 (ip), vehicle: other) was 100 % of control and the T/C (dose: 100.0 mg/kg/injection, schedule: Q01DX009 (ip), vehicle: other) was 98 % of control. For the same compound, the T/C (dose: 200.0 mg/kg/injection, schedule: Q01DX009 (ip), vehicle: other) was 100 % of control and the T/C (dose: 400.0 mg/kg/injection, schedule: Q01DX009 (ip), vehicle: other) was 118 % of control.
For `c1ccc(C(=NCCN=C(c2ccccc2)c2ccccc2)c2ccccc2)cc1`, the T/C (dose: 100.0 mg/kg/injection, schedule: Q01DX009 (ip), vehicle: saline with Tween-80) was 97 % of control, the T/C [7] was 97 % of control and the T/C (dose: 200.0 mg/kg/injection, schedule: Q01DX009 (ip), vehicle: saline with Tween-80) was 92 % of control. The T/C [8] was 97 % of control, the T/C (dose: 400.0 mg/kg/injection, schedule: Q01DX009 (ip), vehicle: saline with Tween-80) was 95 % of control and the T/C [9] was 97 % of control.
In the case of `O=C(OC(=O)C(F)(F)C(F)(F)F)C(F)(F)C(F)(F)F`, the T/C (dose: 100.0 mg/kg/injection, schedule: Q04DX002 (ip), vehicle: saline) was 92 % of control, the T/C (dose: 200.0 mg/kg/injection, schedule: Q04DX002 (ip), vehicle: saline) was 103 % of control and the T/C (dose: 400.0 mg/kg/injection, schedule: Q04DX002 (ip), vehicle: saline) was 100 % of control.
With `COc1ccc(CC2(C#N)c3ccccc3C=CN2C(=O)c2ccccc2)c([N+](=O)[O-])c1OC` (stereo not given) the T/C [3] was 95 % of control, the T/C [4] was 97 % of control and the T/C [5] was 95 % of control.
In the case of `COC(=O)/N=C(/NC(=O)OC)SC`, the T/C [3] was 101 % of control, the T/C [4] was 103 % of control and the T/C [5] was 98 % of control.
For `O=c1nc(/C=C(\O)c2ccccc2)ccn1C1OC(CO)C(O)C1O` (stereo not given), the T/C (dose: 12.5 mg/kg/injection, schedule: Q01DX005 (ip), vehicle: distilled water + Tween-80) was 105 % of control, the T/C (dose: 25.0 mg/kg/injection, schedule: Q01DX005 (ip), vehicle: distilled water + Tween-80) was 94 % of control and the T/C (dose: 50.0 mg/kg/injection, schedule: Q01DX005 (ip), vehicle: distilled water + Tween-80) was 91 % of control. The T/C (dose: 100.0 mg/kg/injection, schedule: Q01DX005 (ip), vehicle: distilled water + Tween-80) was 94 % of control and the T/C (dose: 200.0 mg/kg/injection, schedule: Q01DX005 (ip), vehicle: distilled water + Tween-80) was 98 % of control.
`CCOC(=O)C1CCCNC1=O` (stereo not given) was tested, and the T/C [6] was 101 % of control, the T/C [1] was 94 % of control and the T/C [2] was 95 % of control.
For `O=[N+]([O-])c1ccc(S(=O)(=O)C/C=C/CCl)c([N+](=O)[O-])c1`, the T/C (dose: 25.0 mg/kg/injection, schedule: Q01DX009 (ip), vehicle: saline with Tween-80) was 102 % of control, the T/C (dose: 50.0 mg/kg/injection, schedule: Q01DX009 (ip), vehicle: saline with Tween-80) was 95 % of control and the T/C [3] was 94 % of control.
`NC(=O)CC(NC(=O)CCl)C(=O)O` (stereo not given) was tested, and the T/C [7] was 101 % of control, the T/C [8] was 92 % of control and the T/C [9] was 92 % of control.
In the case of `O=C1c2ccccc2C(=O)c2cc(S(=O)(=O)Cl)ccc21`, the T/C [10] was 99 % of control, the T/C [11] was 92 % of control and the T/C (dose: 400.0 mg/kg/injection, schedule: Q01DX009 (ip), vehicle: saline) was 86 % of control.
For `CCOC(=O)C1=C(C#N)C2(CCC(OCc3ccccc3)CC2)C(=O)O1` (stereo not given), the T/C [12] was 95 % of control, the T/C (dose: 12.5 mg/kg/injection, schedule: Q01DX009 (ip), vehicle: suspension in saline) was 106 % of control and the T/C [13] was 100 % of control. For the same compound, the T/C (dose: 25.0 mg/kg/injection, schedule: Q01DX009 (ip), vehicle: suspension in saline) was 106 % of control, the T/C (dose: 50.0 mg/kg/injection, schedule: Q01DX009 (ip), vehicle: saline) was 107 % of control and the T/C (dose: 50.0 mg/kg/injection, schedule: Q01DX009 (ip), vehicle: suspension in saline) was 108 % of control. For the same compound, the T/C [10] was 106 % of control, the T/C (dose: 100.0 mg/kg/injection, schedule: Q01DX009 (ip), vehicle: suspension in saline) was 106 % of control and the T/C [11] was 106 % of control. The T/C (dose: 200.0 mg/kg/injection, schedule: Q01DX009 (ip), vehicle: suspension in saline) was 100 % of control and the T/C (dose: 400.0 mg/kg/injection, schedule: Q01DX009 (ip), vehicle: suspension in saline) was 108 % of control.
With `Nc1nc(N2CCCCC2)c2ncn(C3OC(CO)C(O)C3O)c2n1` (stereo not given) the T/C (dose: 12.5 mg/kg/injection, schedule: Q01DX005 (ip), vehicle: water) was 106 % of control, the T/C (dose: 25.0 mg/kg/injection, schedule: Q01DX005 (ip), vehicle: water) was 101 % of control and the T/C (dose: 50.0 mg/kg/injection, schedule: Q01DX005 (ip), vehicle: water) was 112 % of control. For the same compound, the T/C (dose: 100.0 mg/kg/injection, schedule: Q01DX005 (ip), vehicle: water) was 96 % of control and the T/C (dose: 200.0 mg/kg/injection, schedule: Q01DX005 (ip), vehicle: water) was 108 % of control.
`Cn1c(=O)c(Br)cc2ccccc21` was tested, and the T/C [6] was 102 % of control, the T/C [1] was 96 % of control and the T/C [2] was 96 % of control.
In the case of `O=C(CN1CC1)NCCCCCCCNC(=O)CN1CC1`, the T/C (dose: 14.6 mg/kg/injection, schedule: Q01DX001 (ip), vehicle: carboxymethylcellulose (CMC)) was 158 % of control and the T/C (dose: 50.0 mg/kg/injection, schedule: Q01DX001 (ip), vehicle: carboxymethylcellulose (CMC)) was 150 % of control.
With `[N-]=[N+]=c1c(=O)c2ccccc2c1=O` the T/C [3] was 96 % of control, the T/C [4] was 94 % of control and the T/C [5] was 104 % of control.
In the case of `CC(Oc1ccc(Cl)cc1)C(/C=N/N=C(N)N)=N/N=C(N)N` (stereo not given), the T/C (dose: 1.56 mg/kg/injection, schedule: Q01DX009 (ip), vehicle: saline) was 100 % of control, the T/C (dose: 3.13 mg/kg/injection, schedule: Q01DX009 (ip), vehicle: saline) was 98 % of control and the T/C (dose: 6.25 mg/kg/injection, schedule: Q01DX009 (ip), vehicle: saline) was 102 % of control. The T/C [12] was 100 % of control and the T/C [13] was 96 % of control and 101 % of control.
